Laboratory results taken from patent US20250161446A1, “MODIFIED IMMUNE CELLS FOR TREATING AND/OR PREVENTING METASTASIS” (TECHNISCHE UNIVERSITÄT MÜNCHEN, priority 2022, published 2025).

What was measured:
human NK cells = test: Human NK cell cytokine production upon stimulation with K562 (flow cytometry); type: cell-based; settings: PGE2 16 h
From the text: (§1) Human NK cells and CD8+ T cells were isolated from blood of healthy, voluntary donors after they gave written and informed consent. Blood was mixed with PBS and loaded on Pancoll to isolate peripheral blood mononuclear cells (PBMCs) through centrifugation. NK cells were then isolated by negative selection using the Untouched Human NK Cell Isolation Kit (ThermoFisher). CD8+ T cells were then isolated by negative selection using the Untouched Human CD8+ T Cell Isolation Kit (Miltenyi).
(§2) Murine or human NK cells or CD8^+ T cells were treated with 1-100 ng/ml synthetic PGE2 or medium as control for 16 h at 37° C. For experiments with tumor factors (TF), cells were incubated in a 1:1 mixture of complete RPMI medium with TF-containing conditioned medium from cancer cells. For the inhibitor studies, cells were first incubated with single EP receptor inhibitors (EP1-EP4) or inhibitor combinations at a concentration of 5 μM for 30 min, before adding 100 ng/ml PGE2 for 16 h at 37° C. […]
(§3) For flow cytometric analysis, cells were resuspended in staining buffer containing antibodies for surface molecules and incubated for 15 min. […] Intracellular staining of cytokines (including IFNγ and TNF) was performed in permeabilization buffer and cells were subsequently analyzed by flow cytometry. […]

mouse CD8^+ T cells = test: Mouse CD8^+ T cell expansion after anti-CD3/CD28+IL-12 stimulation; type: cell-based; settings: PGE2 16 h, expansion 72 h later
Procedure: For the isolation of mouse CD8^+ T cells, the spleen was excised from mice and passed through a steel sieve. Red blood cells were lysed by incubating the cells with ammonium chloride potassium buffer for 2 min. Following filtration through a 70 μm cell strainer, CD8^+ T cells were purified by immunomagnetic separation using anti-CD8 microbeads. After isolation, CD8^+ T cells were cultured with low dose IL2 and CD3/CD28 stimulatory beads to generate effector-like CD8+ T cells for in vitro assays.
as §2
(§4) To assess T cell differentiation and expansion, CD8^+ T cells were stimulated with anti-CD3/CD28 microbeads plus Interleukin-12 (10 ng/ml), mimicking their activation in metastasis or tumor tissue, and cell numbers were quantified 72 h later by flow cytometry.

NK cells [1] = test: NK cell degranulation (LAMP-1 staining) upon anti-NK1.1 stimulation; type: cell-based, mouse; settings: PGE2 pre-treatment 16 h
Procedure: (§5) For the isolation of mouse NK cells, the spleen was excised from mice and passed through a steel sieve. Red blood cells were lysed by incubating the cells with ammonium chloride potassium buffer for 2 min. Following filtration through a 70 μm cell strainer, CD49b^+ leukocytes were purified by immunomagnetic separation to enrich for CD49b^+ NK cells. Th cells were stained with anti-CD49b FITC, anti-CD3ε PerCP/Cy5.5, anti-CD19 PE/eF610 and CD64 PE/Cy7 for 15 min at 4° C. and NK cells, phenotypically identified as CD49b^+CD3ε^−CD19^−CD64^− cells, were FACS-sorted using a SH800 Cell Sorter. After isolation, NK cells were cultured in low doses of IL2 and IL15/IL15Ra for five days to rest the cells and generate functional NK cells.
Murine or human NK cells or CD8^+ T cells were treated with 1-100 ng/ml synthetic PGE2 or medium as control for 16 h at 37° C. For experiments with tumor factors (TF), cells were incubated in a 1:1 mixture of complete RPMI medium with TF-containing conditioned medium from cancer cells. For the inhibitor studies, cells were first incubated with single EP receptor inhibitors (EP1-EP4) or inhibitor combinations at a concentration of 5 μM for 30 min, before adding 100 ng/ml PGE2 for 16 h at 37° C. For the RNA and ATAC sequencing approach, NK cells were only pre-treated for 1 h with PGE2 and then stimulated (as described below) for further 4 h. […]

human CD8^+ T cells = test: Human CD8^+ T cell expansion after anti-CD3/CD28+IL-12 stimulation; type: cell-based; settings: PGE2 16 h, expansion 72 h later
From the text: as §1
(§6) Murine or human NK cells or CD8^+ T cells were treated with 1-100 ng/ml synthetic PGE2 or medium as control for 16 h at 37° C. For experiments with tumor factors (TF), cells were incubated in a 1:1 mixture of complete RPMI medium with TF-containing conditioned medium from cancer cells. For the inhibitor studies, cells were first incubated with single EP receptor inhibitors (EP1-EP4) or inhibitor combinations at a concentration of 5 μM for 30 min, before adding 100 ng/ml PGE2 for 16 h at 37° C. For the RNA and ATAC sequencing approach, NK cells were only pre-treated for 1 h with PGE2 and then stimulated (as described below) for further 4 h.
as §4

NK cells [2] = test: Granzyme B expression in NK cells by flow cytometry; type: cell-based, mouse; settings: untreated vs PGE2-treated NK cells
Procedure: as §5
Murine or human NK cells or CD8^+ T cells were treated with 1-100 ng/ml synthetic PGE2 or medium as control for 16 h at 37° C. For experiments with tumor factors (TF), cells were incubated in a 1:1 mixture of complete RPMI medium with TF-containing conditioned medium from cancer cells. […]
as §3

BRAF^V600E tumor cells = test: NK cell cytotoxicity assay (xCelligence impedance); type: cell-based, mouse; settings: PGE2-treated NK cells co-cultured with tumor cells
Procedure: Measurement of the dynamics of NK cell cytotoxicity against BRAF^V600E tumor cells over time was performed with the impedance-based technology using an xCelligence RTCA MP device (ACEA Biosciences). The xCELLigence RTCA system measures changes in impedance generated by adherence of cells to electrodes on the bottom of the wells of E-Plates and calculates a parameter called Cell Index. For the assays, tumor cells were seeded in 96-well E-plates. After tumor cells reached confluency and a maximum cell index, in vitro cultured NK cells were added in different effector-to-target ratios. Killing was measured by declining cell index values. Percentage of specific cytotoxicity was finally calculated to the index values from tumor cells alone.

NK cells [3] = test: Cytokine release assay of mouse NK cells upon anti-NK1.1 stimulation (ELISA, multiplex); type: cell-based
Procedure: as §5
as §6, with “For” for “Murine or human NK cells or CD8^+ T cells were treated with 1-100 ng/ml synthetic PGE2 or medium as control for 16 h at 37° C. For”
To assess cytokine and chemokine production and degranulation, NK cells were stimulated with plate-bound anti-NK1.1 (PK136), mimicking their activation in metastasis. Human NK cells were activated by incubation with the human […] cell line K562. For analysis of cytokine and chemokine production, Brefeldin A was added 1 h after stimulation to block intracellular protein transport processes. 3 h later, cells were stained for flow cytometric analysis. For analysis of degranulation, stimulation was done in presence of anti-LAMP-1 antibody, and Monensin was added 1 h later to prevent acidification of endolytic vesicles.
To assess the production of cytokines in cell culture supernatants, NK cells were stimulated for 16 h and cell-free supernatants were harvested and stored at −20° C. until further use. Cytokine concentrations in the culture supernatants were measured by enzyme-linked immunosorbent assays (ELISA) or a multiplex cytokine assay (Bio-Plex Pro Mouse Cytokine 23-plex).

[4] = anti-NK1.1 stimulation in presence of PGE2

With `CCCCC[C@H](O)/C=C/[C@H]1[C@H](O)CC(=O)[C@@H]1C/C=C\CCCC(=O)O` [PGE2, prostaglandin E2] the “cytokine and chemokine production (IFNγ, TNF, XCL1) by human NK cells” value (human NK cells) was “impaired the cytokine and chemokine production”, the “expansion of mouse CD8^+ T cells upon stimulation” value (mouse CD8^+ T cells) was “strongly impaired” and the “degranulation (LAMP-1 staining) of NK cells” value (NK cells [1]) was “only slightly reduced”. The “expansion of human CD8^+ T cells upon stimulation” value (human CD8^+ T cells) was “Identical findings”, the “granzyme B levels in NK cells” value (NK cells [2]) was “unaffected” and the “NK cell mediated killing of tumor cells” value (BRAF^V600E tumor cells) was “effectively eliminate the tumor cells”. For the same compound, the “XCL1 secretion after transient PGE2 treatment” value (NK cells [3]; PGE2 24 h, then removed for 24 h before anti-NK1.1 stimulation) was “strong inhibitory effects”, the “IFNγ release by NK cells” value (NK cells [3]; [4]) was “markedly reduced in a dose-dependent manner” and the “XCL1 release by NK cells” value (NK cells [3]; [4]) was “markedly reduced in a dose-dependent manner”. For the same compound, the “secretion of other effector cytokines, chemokines and growth factors by NK cells” value (NK cells [3]; upon stimulation, multiplex assay) was “diminished the secretion”.
